Measured values published in patent publication US8987249B2, “Substituted 2-Aza-bicyclo[2.2.1]heptane-3-carboxylic acid (benzyl-cyano-methyl)-amides inhibitors of Cathepsin C” (Boehringer Ingelheim International GmbH, priority 2013, dated 2015).

How the values were obtained:
[1] = biological target: recombinant human Cathepsin K (Homo sapiens (Human), UniProt P43235); assay: Inhibition of human Cathepsin K; format: biochemical; conditions: substrate Z-Gly-Pro-Arg-AMC
Procedure, shortened: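 Proenzyme activated in pH 3.5 sodium acetate for 30 min at room temperature. Enzyme (2 ng/μL final) preincubated 10 min with compound (0.1 nM–100 μM, 1% DMSO) in pH 5.5 acetate/EDTA/L-cysteine buffer, then reacted 60 min at room temperature with Z-Gly-Pro-Arg-AMC. Stopped with 1 μM E64; fluorescence Ex 360/Em 460 nm; IC50 from background-subtracted percent of vehicle control.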

in vitro = conditions: human, microsomes, pH 7.6
[2] = biological target: recombinant human DPPI (Cathepsin C) (Homo sapiens (Human), UniProt P53634); assay: Inhibition of human DPPI (Cathepsin C); format: biochemical; conditions: substrate Gly-Arg-AMC
Procedure, shortened: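 Recombinant human DPPI in MES buffer pH 6.0 (5 mM DTT, 0.1% BSA); fluorogenic substrate at 50 μM final, 30 min at room temperature, stopped with 1 μM Gly-Phe-DMK. Background-subtracted fluorescence expressed as percent of vehicle control; IC50 derived.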

[3] = Determination of metabolic stability with human liver microsomes; conditions: pooled human liver microsomes; for half-life at 1 μM: human, pH 7.6

Chain of recombinant human DPPI (Cathepsin C) (P53634 231-394): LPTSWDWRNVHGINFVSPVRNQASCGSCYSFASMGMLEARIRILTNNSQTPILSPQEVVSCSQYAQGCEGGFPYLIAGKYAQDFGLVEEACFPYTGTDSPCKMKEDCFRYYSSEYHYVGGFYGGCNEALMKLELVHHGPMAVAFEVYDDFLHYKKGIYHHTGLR
Chain of recombinant human DPPI (Cathepsin C) (P53634 395-463): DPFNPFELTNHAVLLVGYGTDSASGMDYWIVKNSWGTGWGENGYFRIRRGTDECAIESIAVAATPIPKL
Chain of recombinant human DPPI (Cathepsin C) (P53634 25-134): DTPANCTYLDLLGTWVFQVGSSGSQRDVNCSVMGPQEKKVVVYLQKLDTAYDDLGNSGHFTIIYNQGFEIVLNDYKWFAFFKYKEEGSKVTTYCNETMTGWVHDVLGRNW
Chain of recombinant human Cathepsin K (P43235 115-329): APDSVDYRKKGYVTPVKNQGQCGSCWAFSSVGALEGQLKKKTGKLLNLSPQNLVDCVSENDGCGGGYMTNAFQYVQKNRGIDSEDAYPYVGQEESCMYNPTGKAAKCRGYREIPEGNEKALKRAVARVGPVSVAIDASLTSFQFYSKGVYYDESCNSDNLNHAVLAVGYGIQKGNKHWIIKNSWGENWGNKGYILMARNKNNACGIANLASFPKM

SMILES | IC50 [1] [µM] | half-life at 1 μM (in vitro) [min] | IC50 [2] [nM] | half-life at 1 μM [3] [min] | In vitro stability in human liver microsome incubations t½ ([3]; 1 μM test compound, 37° C., NADPH) [min]
CN1CC2CCC(C1)N2c1ccc(C[C@@H](C#N)NC(=O)[C@H]2N[C@@H]3CC[C@H]2C3)c(F)c1 [Example 328] | 7.7 | > 130 | 4.2 | – | –
CN(C)CCN1C(=O)Cc2ccc(-c3ccc(C[C@@H](C#N)NC(=O)[C@H]4N[C@@H]5CC[C@H]4C5)c(F)c3)cc21 [Example 278] | 1.2 | > 130 | 1 | – | –
N#C[C@H](Cc1ccc(N2CCNCC2)cc1F)NC(=O)[C@H]1N[C@@H]2CC[C@H]1C2 [Example 204] | – | > 130 | 24.5 | – | –
N#C[C@H](Cc1ccc(C2=CC3COCCN3CC2)cc1F)NC(=O)[C@H]1N[C@@H]2CC[C@H]1C2 (stereo partly drawn) [Example 282] | 1.8 | > 130 | 3.7 | – | –
N#C[C@H](Cc1ccc(C2=CCN(C3CCOC3)CC2)cc1F)NC(=O)[C@H]1N[C@@H]2CC[C@H]1C2 (stereo partly drawn) [Example 332] | 6.2 | 100 | 12.9 | – | –
CN1CCC(C)(c2ccc(C[C@@H](C#N)NC(=O)[C@H]3N[C@@H]4CC[C@H]3C4)c(F)c2)CC1 [Example 321] | – | > 130 | – | – | –
CCN1CC=C(c2ccc(C[C@@H](C#N)NC(=O)[C@H]3N[C@@H]4CC[C@H]3C4)c(F)c2)CC1 [Example 320] | – | > 130 | 9.6 | – | –
CN1CC=C(c2ccc(C[C@@H](C#N)NC(=O)[C@H]3N[C@@H]4CC[C@H]3C4)c(F)c2)CC1 [Example 223] | – | > 130 | – | – | –
N#CC(Cc1ccc2c(c1)c(=O)[nH]c1c(F)c(F)ccc12)NC(=O)[C@H]1N[C@@H]2CC[C@H]1C2 (stereo partly drawn) [Example 300] | 23.1 | – | 3.8 | > 130 | –
N#C[C@H](Cc1ccc(-c2cnn(CC3CCCCO3)c2)cc1F)NC(=O)[C@H]1N[C@@H]2CC[C@H]1C2 (stereo partly drawn) [Example 28] | 2.7 | – | 4.1 | > 130 | –
CS(=O)(=O)c1cc(-c2cc(F)c(CC(C#N)NC(=O)[C@H]3N[C@@H]4CC[C@H]3C4)c(F)c2)ccc1C#N (stereo partly drawn) [Example 52] | 17 | – | 7.6 | > 130 | –
CS(=O)(=O)c1cc(OCC(F)(F)F)cc(-c2ccc(C[C@@H](C#N)NC(=O)[C@H]3N[C@@H]4CC[C@H]3C4)c(F)c2)c1 [Example 276] | 5.5 | – | 14.1 | – | 130
N#CC(Cc1cc2c(=O)[nH]c3ccc(F)cc3c2cc1F)NC(=O)[C@H]1N[C@@H]2CC[C@H]1C2 (stereo partly drawn) [Example 295] | 4.7 | – | 2.1 | > 130 | –
CN1CCC(N2C(=O)Cc3ccc(-c4ccc(C[C@@H](C#N)NC(=O)[C@H]5N[C@@H]6CC[C@H]5C6)c(F)c4)cc32)CC1 [Example 346] | 4 | – | 1 | > 130 | –
CCC(C)(O)Cc1cn(-c2ccc(C[C@@H](C#N)NC(=O)[C@H]3N[C@@H]4CC[C@H]3C4)c(F)c2)nn1 (stereo partly drawn) [Example 82] | 5.4 | – | 13.1 | > 130 | –
CO[C@@H]1C[C@@H]2CN(c3ccc(C[C@@H](C#N)NC(=O)[C@H]4N[C@@H]5CC[C@H]4C5)c(F)c3)CCN2C1 [Example 269] | 1.7 | – | 9.4 | > 130 | –
N#C[C@H](Cc1ccc(-c2csc(C(=O)NC3CCOCC3)c2)cc1F)NC(=O)[C@H]1N[C@@H]2CC[C@H]1C2 [Example 235] | 3 | – | 4.7 | > 130 | –
N#C[C@H](Cc1cc2c(=O)[nH]c3cc(F)ccc3c2cc1F)NC(=O)[C@H]1N[C@@H]2CC[C@H]1C2 [Example 323] | 0.9 | – | 0.8 | > 130 | –
CCNC(=O)c1coc(-c2ccc(C[C@@H](C#N)NC(=O)[C@H]3N[C@@H]4CC[C@H]3C4)c(F)c2)c1 [Example 242] | 2.5 | – | 10.9 | > 130 | –
N#CC(Cc1ccc(-c2ccc(C(N)=O)cc2)cc1F)NC(=O)[C@H]1N[C@@H]2CC[C@H]1C2 (stereo partly drawn) [Example 83] | 5.1 | – | 13.3 | > 130 | –
N#CC(Cc1ccc(-c2ccc3c(c2)CNC3=O)cc1F)NC(=O)[C@H]1N[C@@H]2CC[C@H]1C2 (stereo partly drawn) [Example 41] | 4.7 | – | 5.3 | > 130 | –
N#C[C@H](Cc1ccc(-c2cc(C(=O)N3CCn4nccc4C3)co2)cc1F)NC(=O)[C@H]1N[C@@H]2CC[C@H]1C2 [Example 240] | 9.4 | – | 6.1 | 110 | –

SMILES | IC50 [1] [µM] | half-life at 1 μM (in vitro) [min] | IC50 [2] [nM] | half-life at 1 μM [3] [min] | In vitro stability in human liver microsome incubations t½ ([3]; 1 μM test compound, 37° C., NADPH) [min]
CC(=O)N1CCC(Cn2cc(-c3ccc(C[C@@H](C#N)NC(=O)[C@H]4N[C@@H]5CC[C@H]4C5)c(F)c3)cn2)CC1 [Example 55] | 3.9 | – | 8.2 | > 130 | –
Cc1cc(-c2ccc(CC(C#N)NC(=O)[C@H]3N[C@@H]4CC[C@H]3C4)c(F)c2)n[nH]1 (stereo partly drawn) [Example 58] | 11.1 | – | 8.4 | > 130 | –
N#C[C@H](Cc1ccc(-n2cc(COC(=O)N3CCCC3)nn2)cc1F)NC(=O)[C@H]1N[C@@H]2CC[C@H]1C2 [Example 106] | 5.3 | – | 25.9 | > 130 | –
COc1ccc(-c2cn(-c3ccc(C[C@@H](C#N)NC(=O)[C@H]4N[C@@H]5CC[C@H]4C5)c(F)c3)nn2)cc1OC [Example 77] | 5.3 | – | 11.9 | > 130 | –
CN1CCN(C(=O)c2cccc(-c3ccc(C[C@@H](C#N)NC(=O)[C@H]4N[C@@H]5CC[C@H]4C5)c(F)c3)c2)CC1 [Example 245] | 1.2 | – | 5.9 | > 130 | –
CS(=O)(=O)c1cccc(-c2ccc(C[C@@H](C#N)NC(=O)[C@H]3N[C@@H]4CC[C@H]3C4)c(F)c2)c1 [Example 4, (1S,2S,4R)—N-[(1S)-1-cyano-2-[2-fluoro-4-(3-methylsulfonylphenyl)phenyl]ethyl]-3-azabicyclo[2.2.1]heptane-2-carboxamide] | 2.6 | – | 1.4 | > 130 | –
COCCOCc1cn(-c2ccc(C[C@@H](C#N)NC(=O)[C@H]3N[C@@H]4CC[C@H]3C4)c(F)c2)nn1 [Example 112] | 5.6 | – | 33.3 | > 130 | –
N#C[C@H](Cc1ccc(-c2ccc(C(N)=O)o2)cc1F)NC(=O)[C@H]1N[C@@H]2CC[C@H]1C2 [Example 167] | 6.3 | – | 3.4 | > 130 | –
CC(=O)N1CCN(C(=O)c2cc(-c3ccc(C[C@@H](C#N)NC(=O)[C@H]4N[C@@H]5CC[C@H]4C5)c(F)c3)cs2)CC1 [Example 231] | 2.4 | – | 2.2 | > 130 | –
CS(=O)(=O)c1ccc(-c2ccc(C[C@@H](C#N)NC(=O)[C@H]3N[C@@H]4CC[C@H]3C4)c(F)c2)cc1F [Example 12] | 2.1 | – | 1.9 | > 130 | –
Cn1c(=O)c2cc(CC(C#N)NC(=O)[C@H]3N[C@@H]4CC[C@H]3C4)ccc2c2ccc(C#N)cc21 (stereo partly drawn) [Example 303] | 22.2 | – | 5 | > 130 | –
N#C[C@H](Cc1ccc(N2CCN3CCOCC3C2)cc1F)NC(=O)[C@H]1N[C@@H]2CC[C@H]1C2 (stereo partly drawn) [Example 43] | 2.2 | – | 5.6 | > 130 | –
Cn1cc(-c2ccc(C[C@@H](C#N)NC(=O)[C@H]3N[C@@H]4CC[C@H]3C4)c(F)c2)ccc1=O [Example 254] | 4.5 | – | 2 | > 130 | –
CS(=O)(=O)Nc1cccc(-c2ccc(C[C@@H](C#N)NC(=O)[C@H]3N[C@H]4C[C@@H]3[C@@H]3C[C@@H]34)c(F)c2)c1 [Example 139] | 4.8 | – | 11.7 | > 130 | –
CN1C(=O)C(C)(C)c2ccc(-c3ccc(C[C@@H](C#N)NC(=O)[C@H]4N[C@@H]5CC[C@H]4C5)c(F)c3)cc21 [Example 199] | 11.7 | – | 16 | 88 | –
N#C[C@H](Cc1ccc(-c2ccc(C(=O)N3CCN4CCOCC4C3)o2)cc1F)NC(=O)[C@H]1N[C@@H]2CC[C@H]1C2 (stereo partly drawn) [Example 238] | 9.3 | – | 14.3 | 110 | –
N#C[C@H](Cc1ccc(-n2cc(COc3ccccc3)nn2)cc1F)NC(=O)[C@H]1N[C@@H]2CC[C@H]1C2 [Example 47] | 3.4 | – | 7.2 | 84 | –
CCOCc1cn(-c2ccc(C[C@@H](C#N)NC(=O)[C@H]3N[C@@H]4CC[C@H]3C4)c(F)c2)nn1 [Example 105] | 5.2 | – | 25 | > 130 | –
N#C[C@H](Cc1ccc(-c2cnn(CC3CCOC3)c2)cc1F)NC(=O)[C@H]1N[C@@H]2CC[C@H]1C2 (stereo partly drawn) [Example 21] | 4.9 | – | 3.1 | > 130 | –
N#CC(Cc1cc2c(=O)[nH]c3cc(F)ccc3c2cc1F)NC(=O)[C@H]1N[C@@H]2CC[C@H]1C2 (stereo partly drawn) [Example 293] | 2.7 | – | 1.3 | > 130 | –
N#C[C@H](Cc1ccc(N2CCN3CCOC[C@@H]3C2)cc1F)NC(=O)[C@H]1N[C@@H]2CC[C@H]1C2 [Example 249] | 3.6 | – | 6.3 | > 130 | –
N#C[C@H](Cc1ccc(-c2cnn(CC3CCCO3)c2)cc1F)NC(=O)[C@H]1N[C@@H]2CC[C@H]1C2 (stereo partly drawn) [Example 50] | 3.6 | – | 7.4 | > 130 | –
